Test results reported in PubChem BioAssay AID1259407 (Chemical Carcinogenesis Research Information System (CCRIS), 2018).
The source made the active and inactive calls. The rule behind the calls is not given here.

System: CCRIS mutagenicity, Ames/micronucleus/aberration tests
Experiment: CCRIS mutagenicity studies
[1] = Test System: AMES SALMONELLA TYPHIMURIUM, Strain/Indicator: TA97, Metabolic Activation: NONE, Method: PREINCUBATION
[2] = Test System: AMES SALMONELLA TYPHIMURIUM, Strain/Indicator: TA98, Metabolic Activation: HAMSTER, LIVER, S-9, AROCLOR 1254 (10 OR 30%), Method: PREINCUBATION
[3] = Test System: AMES SALMONELLA TYPHIMURIUM, Strain/Indicator: TA98, Metabolic Activation: NONE, Method: PREINCUBATION
[4] = Test System: AMES SALMONELLA TYPHIMURIUM, Strain/Indicator: TA100, Metabolic Activation: HAMSTER, LIVER, S-9, AROCLOR 1254 (10 OR 30%), Method: PREINCUBATION
[5] = Test System: AMES SALMONELLA TYPHIMURIUM, Strain/Indicator: TA100, Metabolic Activation: NONE, Method: PREINCUBATION
[6] = Test System: AMES SALMONELLA TYPHIMURIUM, Strain/Indicator: TA100, Metabolic Activation: RAT, LIVER, S-9, AROCLOR 1254 (10 OR 30%), Method: PREINCUBATION
[7] = Test System: AMES SALMONELLA TYPHIMURIUM, Strain/Indicator: TA1535, Metabolic Activation: NONE, Method: PREINCUBATION
[8] = Test System: AMES SALMONELLA TYPHIMURIUM, Strain/Indicator: TA1537, Metabolic Activation: NONE, Method: PREINCUBATION
[9] = Test System: AMES SALMONELLA TYPHIMURIUM, Strain/Indicator: TA100, Metabolic Activation: NONE, Method: STANDARD PLATE
[10] = Test System: AMES SALMONELLA TYPHIMURIUM, Strain/Indicator: TA100, Metabolic Activation: RAT, LIVER, S-9, AROCLOR 1254, Method: STANDARD PLATE

SMILES: CCC#N
- mutagenic call (End Point: IN VITRO CHROMOSOMAL ABERRATIONS, Test System: CHO-LB CELLS, Metabolic Activation: NONE): inactive; negative
- mutagenic call (End Point: IN VITRO CHROMOSOMAL ABERRATIONS, Test System: CHO-LB CELLS, Metabolic Activation: RAT, LIVER, S-9, AROCLOR 1254): inactive; negative
- mutagenic call (Test System: AMES SALMONELLA TYPHIMURIUM, Strain/Indicator: TA97, Metabolic Activation: HAMSTER, LIVER, S-9, AROCLOR 1254 (10 OR 30%), Method: PREINCUBATION): inactive; negative
- mutagenic call [1]: inactive; negative
- mutagenic call (Test System: AMES SALMONELLA TYPHIMURIUM, Strain/Indicator: TA97, Metabolic Activation: RAT, LIVER, S-9, AROCLOR 1254 (10 OR 30%), Method: PREINCUBATION): inactive; negative
- mutagenic call [2]: inactive; negative
- mutagenic call [3]: inactive; negative
- mutagenic call (Test System: AMES SALMONELLA TYPHIMURIUM, Strain/Indicator: TA98, Metabolic Activation: RAT, LIVER, S-9, AROCLOR 1254 (10 OR 30%), Method: PREINCUBATION): inactive; negative
- mutagenic call [4]: inactive; negative
- mutagenic call [5]: inactive; negative
- mutagenic call [6]: inactive; negative
- mutagenic call (Test System: AMES SALMONELLA TYPHIMURIUM, Strain/Indicator: TA1535, Metabolic Activation: HAMSTER, LIVER, S-9, AROCLOR 1254 (10 OR 30%), Method: PREINCUBATION): inactive; negative
- mutagenic call [7]: inactive; negative
- mutagenic call (Test System: AMES SALMONELLA TYPHIMURIUM, Strain/Indicator: TA1535, Metabolic Activation: RAT, LIVER, S-9, AROCLOR 1254 (10 OR 30%), Method: PREINCUBATION): inactive; negative

SMILES: CN(C)C(=O)/C=C/c1ccc([N+](=O)[O-])o1
- mutagenic call [3]: active; positive

SMILES: O[C@H]1C=Cc2cccc3c2[C@@]1(O)c1ccccc1-3
- mutagenic call (Test System: AMES SALMONELLA TYPHIMURIUM, Strain/Indicator: TM677, Metabolic Activation: NONE, Method: PREINCUBATION): inactive; negative
- mutagenic call (Test System: AMES SALMONELLA TYPHIMURIUM, Strain/Indicator: TM677, Metabolic Activation: RAT, LIVER, POSTMITOCHONDRIAL SUPERNATANT, AROCLOR 1254, Method: PREINCUBATION): inactive; negative

SMILES: O=[N+]([O-])c1cc(CCl)cc([N+](=O)[O-])c1
- mutagenic call [3]: active; positive
- mutagenic call (Test System: AMES SALMONELLA TYPHIMURIUM, Strain/Indicator: TA98, Metabolic Activation: RAT, LIVER, S-9, KANECHLOR 500, Method: PREINCUBATION): active; positive
- mutagenic call [5]: active; positive
- mutagenic call (Test System: AMES SALMONELLA TYPHIMURIUM, Strain/Indicator: TA100, Metabolic Activation: RAT, LIVER, S-9, KANECHLOR 500, Method: PREINCUBATION): active; positive

SMILES: BrCC(Br)c1ccccc1 (centres undefined)
- mutagenic call (Test System: AMES SALMONELLA TYPHIMURIUM, Strain/Indicator: TA100/NG-57, Metabolic Activation: CELL PRETREATMENT WITH GLUTATHIONE, Method: PREINCUBATION): active; positive
- mutagenic call (Test System: AMES SALMONELLA TYPHIMURIUM, Strain/Indicator: TA100/NG-57, Metabolic Activation: NONE, Method: PREINCUBATION): active; positive
- mutagenic call (Test System: AMES SALMONELLA TYPHIMURIUM, Strain/Indicator: TA100, Metabolic Activation: CELL PRETREATMENT WITH GLUTATHIONE, Method: PREINCUBATION): active; positive
- mutagenic call [5]: active; positive
- mutagenic call (Test System: AMES SALMONELLA TYPHIMURIUM, Strain/Indicator: TA100, Metabolic Activation: NONE, Method: SPOT TEST): active; positive

SMILES: [Cl][Hg].[Cl][Hg]
- mutagenic call (End Point: IN VIVO MICRONUCLEUS, Test System: BONE MARROW, Species: HAMSTER, Strain/Sex: SYRIAN/MALE, Route: INTRAPERITONEAL): inactive; negative

SMILES: O=C(NO)c1ccccc1
- mutagenic call (Test System: AMES SALMONELLA TYPHIMURIUM, Strain/Indicator: TA97, Metabolic Activation: HAMSTER, LIVER, S-9, AROCLOR 1254 (10%), Method: PREINCUBATION): active; positive
- mutagenic call [1]: active; positive
- mutagenic call (Test System: AMES SALMONELLA TYPHIMURIUM, Strain/Indicator: TA97, Metabolic Activation: RAT, LIVER, S-9, AROCLOR 1254 (10%), Method: PREINCUBATION): active; positive
- mutagenic call [2]: active; positive
- mutagenic call [3]: active; positive
- mutagenic call (Test System: AMES SALMONELLA TYPHIMURIUM, Strain/Indicator: TA98, Metabolic Activation: RAT, LIVER, S-9, AROCLOR 1254 (10%), Method: PREINCUBATION): active; positive
- mutagenic call (Test System: AMES SALMONELLA TYPHIMURIUM, Strain/Indicator: TA98, Metabolic Activation: RAT, LIVER, S-9, AROCLOR 1254 (30%), Method: PREINCUBATION): active; positive
- mutagenic call [4]: active; positive
- mutagenic call [5]: active; positive
- mutagenic call [6]: active; positive
- mutagenic call (Test System: AMES SALMONELLA TYPHIMURIUM, Strain/Indicator: TA1535, Metabolic Activation: HAMSTER, LIVER, S-9, AROCLOR 1254 (10%), Method: PREINCUBATION): active; positive
- mutagenic call [7]: inactive; negative
- mutagenic call (Test System: AMES SALMONELLA TYPHIMURIUM, Strain/Indicator: TA1535, Metabolic Activation: RAT, LIVER, S-9, AROCLOR 1254 (10%), Method: PREINCUBATION): active; positive
- mutagenic call (Test System: AMES SALMONELLA TYPHIMURIUM, Strain/Indicator: TA1537, Metabolic Activation: HAMSTER, LIVER, S-9, AROCLOR 1254 (10%), Method: PREINCUBATION): active; positive
- mutagenic call [8]: active; positive
- mutagenic call (Test System: AMES SALMONELLA TYPHIMURIUM, Strain/Indicator: TA1537, Metabolic Activation: RAT, LIVER, S-9, AROCLOR 1254 (10%), Method: PREINCUBATION): active; positive

SMILES: O=P(O)(O)OP(=O)(O)OP(=O)(O)O
- mutagenic call [3]: inactive; negative
- mutagenic call (Test System: AMES SALMONELLA TYPHIMURIUM, Strain/Indicator: TA98, Metabolic Activation: RAT, LIVER, S-9, KC 500, Method: PREINCUBATION): inactive; negative
- mutagenic call [5]: inactive; negative
- mutagenic call (Test System: AMES SALMONELLA TYPHIMURIUM, Strain/Indicator: TA100, Metabolic Activation: RAT, LIVER, S-9, KC 500, Method: PREINCUBATION): inactive; negative
- mutagenic call [7]: inactive; negative
- mutagenic call (Test System: AMES SALMONELLA TYPHIMURIUM, Strain/Indicator: TA1535, Metabolic Activation: RAT, LIVER, S-9, KC 500, Method: PREINCUBATION): inactive; negative
- mutagenic call [8]: inactive; negative
- mutagenic call (Test System: AMES SALMONELLA TYPHIMURIUM, Strain/Indicator: TA1537, Metabolic Activation: RAT, LIVER, S-9, KC 500, Method: PREINCUBATION): inactive; negative
- mutagenic call (Test System: AMES SALMONELLA TYPHIMURIUM, Strain/Indicator: TA1538, Metabolic Activation: NONE, Method: PREINCUBATION): inactive; negative
- mutagenic call (Test System: AMES SALMONELLA TYPHIMURIUM, Strain/Indicator: TA1538, Metabolic Activation: RAT, LIVER, S-9, KC 500, Method: PREINCUBATION): inactive; negative
- mutagenic call (Test System: E. COLI, Strain/Indicator: WP2 UVRA, Metabolic Activation: NONE, Method: PREINCUBATION): inactive; negative
- mutagenic call (Test System: E. COLI, Strain/Indicator: WP2 UVRA, Metabolic Activation: RAT, LIVER, S-9, KC 500, Method: PREINCUBATION): inactive; negative

SMILES: CC1(C)C2CC3OC3(C)C1C2 (centres undefined)
- mutagenic call [9]: inactive; negative
- mutagenic call [10]: inactive; negative
- mutagenic call (Test System: AMES SALMONELLA TYPHIMURIUM, Strain/Indicator: TA1535, Metabolic Activation: NONE, Method: STANDARD PLATE): inactive; negative
- mutagenic call (Test System: AMES SALMONELLA TYPHIMURIUM, Strain/Indicator: TA1535, Metabolic Activation: RAT, LIVER, S-9, AROCLOR 1254, Method: STANDARD PLATE): inactive; negative
- mutagenic call (Test System: UDS RAT HEPATOCYTES, Strain/Indicator: THY INCORP, Metabolic Activation: NONE): inactive; negative

SMILES: O=C(O)Nc1ccccc1
- mutagenic call (Test System: AMES SALMONELLA TYPHIMURIUM, Strain/Indicator: TA98, Metabolic Activation: NONE, Method: STANDARD PLATE): inactive; negative
- mutagenic call (Test System: AMES SALMONELLA TYPHIMURIUM, Strain/Indicator: TA98, Metabolic Activation: RAT, LIVER, S-9, AROCLOR 1254, Method: STANDARD PLATE): inactive; negative
- mutagenic call [9]: inactive; negative
- mutagenic call [10]: inactive; negative
